“And” between values parts separate entries of the source, which are not always exact repeats. Equal values may be shown once.
What was measured:
Zika virus = conditions: in vitro, by targeting nonstructural protein 5; cited from earlier work
ERK1/2 = conditions: macrophages pretreated prior to S. suis infection, vs nontreated infected macrophages; cited from earlier work
[1] = system: MERS-CoV clinical isolate; conditions: viral spike (S) protein expression, infected Vero cells, IFA; read-out: 50% inhibitory concentration (IC50); cited from earlier work
SARS-CoV-2 coronavirus = assay: SARS-CoV-2 plaque reduction assay in Vero E6 cells; type: cell-based; conditions: for Mean PFU/well: n=3
Spinal Cord Injury (SCI) = conditions: oral administration; cited from earlier work
allergen-sensitized mice = conditions: mouse, in vivo; cited from earlier work
Dengue = conditions: cited from earlier work
[2] = system: LPS induced ARDS mouse model; assay: LPS induced ARDS mouse model (tracheal instillation of 60 μg of LPS), oral and inhaled; type: in vivo, C57BL/6 mice; conditions: for blood oxygen saturation (SpO2): 72 h; for blood reticulocyte count: vs LPS negative control
Pseudomonas aeruginosa = conditions: Cftr.KO mice; cited from earlier work
Dengue infection = conditions: lethal mouse model; cited from earlier work
Streptococcus suis = conditions: acute S. suis infection; cited from earlier work
[3] = Plasma and lung fenretinide exposure, oral and inhaled (Example 3); type: in vivo, C57BL/6 mice; conditions: nebulization of 0.65 mg/mL for 30 or 60 min; calculated, confirmed by analysis of lung tissue
[4] = system: adult CF patients experiencing pulmonary exacerbation; conditions: cited from earlier work
[5] = molecular target: T1, cytosolic phospholipases (cPLA2) (Homo sapiens, UniProt P47712); conditions: cited from earlier work
T1 sequence (P47712 1-749): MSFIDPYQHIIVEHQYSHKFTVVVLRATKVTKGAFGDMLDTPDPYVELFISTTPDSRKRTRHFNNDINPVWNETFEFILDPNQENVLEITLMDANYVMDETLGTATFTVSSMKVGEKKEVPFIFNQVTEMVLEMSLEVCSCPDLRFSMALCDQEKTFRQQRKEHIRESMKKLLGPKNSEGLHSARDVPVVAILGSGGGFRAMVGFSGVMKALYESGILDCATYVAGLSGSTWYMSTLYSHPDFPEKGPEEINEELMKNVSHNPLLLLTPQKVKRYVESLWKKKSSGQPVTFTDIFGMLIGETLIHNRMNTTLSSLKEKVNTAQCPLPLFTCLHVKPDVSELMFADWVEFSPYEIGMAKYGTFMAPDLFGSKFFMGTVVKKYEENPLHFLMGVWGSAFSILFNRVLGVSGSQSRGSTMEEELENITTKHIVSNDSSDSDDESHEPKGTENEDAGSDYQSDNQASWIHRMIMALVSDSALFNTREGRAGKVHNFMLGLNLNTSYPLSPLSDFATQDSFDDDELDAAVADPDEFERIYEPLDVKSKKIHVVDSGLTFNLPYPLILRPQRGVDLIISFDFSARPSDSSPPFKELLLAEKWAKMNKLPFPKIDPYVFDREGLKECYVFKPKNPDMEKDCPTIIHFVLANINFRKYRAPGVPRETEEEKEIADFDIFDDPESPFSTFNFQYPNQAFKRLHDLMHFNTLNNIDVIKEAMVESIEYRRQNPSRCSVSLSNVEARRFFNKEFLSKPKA

Vero E6 cells = conditions: up to 40 μM concentrations
[6] = inhaled fenretinide 1.8 μg/kg, 72 hours
[7] = inhaled fenretinide 3.6 μg/kg, 72 hours

CC1=C(/C=C/C(C)=C/C=C/C(C)=C/C(=O)Nc2ccc(O)cc2)C(C)(C)CCC1 [Fenretinide, 4-hydroxyphenyl retinamide]
activity against Zika virus (Zika virus): potent activity
ERK1/2 activation (ERK1/2): significant reduction in ERK1/2 activation
IC50 [1]: 2800 nM
IC50 (SARS-CoV-2 coronavirus; Severe acute respiratory syndrome coronavirus 2, Vero C1008, linear regression analysis (FIG. 1), R2=0.92, read-out: IC50, 50% inhibition of virus survival): 1570 nM
% survival (SARS-CoV-2 coronavirus; fenretinide 0.625 μM): 80.5%
Plaque forming unit counts, Wells 1-3 (individual counts/well) (SARS-CoV-2 coronavirus; fenretinide 0.625 μM): 21 and 19 and 22
Mean PFU/well (SARS-CoV-2 coronavirus; fenretinide 0.625 μM): 20.7 PFU/well
% survival (SARS-CoV-2 coronavirus; fenretinide 1.25 μM): 75.3%
Plaque forming unit counts, Wells 1-3 (individual counts/well) (SARS-CoV-2 coronavirus; fenretinide 1.25 μM): 14 and 31 and 13
Mean PFU/well (SARS-CoV-2 coronavirus; fenretinide 1.25 μM): 19.3 PFU/well
% survival (SARS-CoV-2 coronavirus; fenretinide 2.5 μM): 24.7%
Plaque forming unit counts, Wells 1-3 (individual counts/well) (SARS-CoV-2 coronavirus; fenretinide 2.5 μM): 6 and 3 and 10
Mean PFU/well (SARS-CoV-2 coronavirus; fenretinide 2.5 μM): 6.3 PFU/well
% survival (SARS-CoV-2 coronavirus; fenretinide 5 μM): 0.0%
Plaque forming unit counts, Wells 1-3 (individual counts/well) (SARS-CoV-2 coronavirus; fenretinide 5 μM): 0
Mean PFU/well (SARS-CoV-2 coronavirus; fenretinide 5 μM): 0.0 PFU/well
locomotor recovery (Spinal Cord Injury (SCI)): improved locomotor recovery
infiltration of inflammatory cells to the airways (allergen-sensitized mice): complete block of infiltration of inflammatory cells to the airways
antiviral activity against Dengue fever disease (Dengue): potent antiviral activity
blood oxygen saturation (SpO2) ([2]; inhaled fenretinide 1.8 μg/kg): partially, but significantly, alleviated the reduction of blood oxygen saturation
lung protein concentration [2, 6]: reduced the lung protein concentration
blood reticulocyte count [2, 6]: significantly increased reticulocyte counts
myeloperoxidase (MPO) activity in the BALF ([2]; inhaled fenretinide 1.8 μg/kg, 72 hours, statistically significant vs negative control): reduced MPO activity
blood oxygen saturation (SpO2) ([2]; inhaled fenretinide 3.6 μg/kg): partially, but significantly, alleviated the reduction of blood oxygen saturation
lung protein concentration [2, 7]: reduced the lung protein concentration
blood reticulocyte count [2, 7]: significantly increased reticulocyte counts
pulmonary load of Pseudomonas aeruginosa (Pseudomonas aeruginosa): significant decrease in the pulmonary load of Pseudomonas aeruginosa
protection against Dengue infection (Dengue infection): can protect against Dengue infection
survival (Streptococcus suis): significantly improved their survival
effective fenretinide dose delivered to the lungs (local lung concentration) [3]: 1 to 3 µM
plasma levels of IL-6, IL-8, IL-10 and neutrophils count ([4]; at the onset of the PEx episode): appeared to improve
lipidomic markers ([4]; subgroup with pulmonary exacerbation (PEx)): normalized the lipidomic markers in a dose-response manner
activity of cytosolic phospholipases (cPLA2) [5]: inhibits the activity of cytosolic phospholipases

CCC(CC)COC(=O)[C@H](C)N[P@](=O)(OC[C@H]1O[C@@](C#N)(c2ccc3c(N)ncnn23)[C@H](O)[C@@H]1O)Oc1ccccc1 [Remdesivir]
% virus survival (SARS-CoV-2 coronavirus; remdesivir 0.625 μM): 90.9%
Plaque forming unit counts, Wells 1-3 (individual counts/well) (SARS-CoV-2 coronavirus; remdesivir 0.625 μM): 25 (2×) and 20
Mean PFU/well (SARS-CoV-2 coronavirus; remdesivir 0.625 μM): 23.3 PFU/well
% virus survival (SARS-CoV-2 coronavirus; remdesivir 1.25 μM): 42.9%
Plaque forming unit counts, Wells 1-3 (individual counts/well) (SARS-CoV-2 coronavirus; remdesivir 1.25 μM): 10 and 11 and 12
Mean PFU/well (SARS-CoV-2 coronavirus; remdesivir 1.25 μM): 11.0 PFU/well
Plaque forming unit counts, Wells 1-3 (individual counts/well) (SARS-CoV-2 coronavirus; remdesivir 2.5 μM): 5 (2×) and 2
Mean PFU/well (SARS-CoV-2 coronavirus; remdesivir 2.5 μM): 4.0 PFU/well
% virus survival (SARS-CoV-2 coronavirus; remdesivir 5 μM): 2.6%
Plaque forming unit counts, Wells 1-3 (individual counts/well) (SARS-CoV-2 coronavirus; remdesivir 5 μM): 1 (2×) and 0
Mean PFU/well (SARS-CoV-2 coronavirus; remdesivir 5 μM): 0.7 PFU/well
% virus survival (SARS-CoV-2 coronavirus; remdesivir 10 μM): 0%
Plaque forming unit counts, Wells 1-3 (individual counts/well) (SARS-CoV-2 coronavirus; remdesivir 10 μM): 0
Mean PFU/well (SARS-CoV-2 coronavirus; remdesivir 10 μM): 0.0 PFU/well
% virus survival (SARS-CoV-2 coronavirus; remdesivir 20 μM): 0.0%
Plaque forming unit counts, Wells 1-3 (individual counts/well) (SARS-CoV-2 coronavirus; remdesivir 20 μM): 0
Mean PFU/well (SARS-CoV-2 coronavirus; remdesivir 20 μM): 0.0 PFU/well
% virus survival (SARS-CoV-2 coronavirus; remdesivir 40 μM): 0.0%
Plaque forming unit counts, Wells 1-3 (individual counts/well) (SARS-CoV-2 coronavirus; remdesivir 40 μM): 0
Mean PFU/well (SARS-CoV-2 coronavirus; remdesivir 40 μM): 0.0 PFU/well
cytopathic effect (Vero E6 cells): No cytopathic effect

Source: patent US20230110899A1, “NOVEL COMPOSITIONS FOR TREATMENT OF CORONAVIRUS DISEASE” (priority 2020, published 2023)
